One assay concerns HUVEC. Description: In vitro ATP release assay (luciferin:luciferase), HUVEC. In kind it is cell-based, human. The settings on record: for reduction of TNFα-mediated ATP release: CBX 50 μM, ^10panx1 200 μM; for effect of inhibitor on TNFα-induced ATP release: antagonist 30 min, WP9QY 10 μM, La3+ 100 μM, BFA 5 μg/mL, RuR 20 μM, PP2/PP3 10 μM, Q-VD-OPh 100 μM. The procedure: (§1) In vitro Human arterial and venous ECs were seeded in 24-well plates pre-coated with 0.2% gelatin and grown to confluency. On the day of experiment, the media was removed from each well and cells were carefully washed twice with warm serum free basal EC medium supplemented with 1% BSA. Cells were then incubated in 300 μL of fresh basal EC medium supplemented with 1% BSA for 30 minutes at 37° C. to allow degradation of extracellular ATP released due to mechanical stimulation during washes. Endogenous ecto-nucleotidases were inhibited by incubating EC monolayers with 300 μM ARL 67156 (Tocris) for 30 minutes at 37° C. Cells were then stimulated with recombinant human TNFα (R&D Systems). For dose response experiments, ECs were incubated with 0.1, 1, 5, 10, 50, or 100 ng/mL recombinant TNFα for 30 minutes at 37° C. For time-course experiments, ECs were stimulated with 10 ng/mL recombinant TNFα for different time points up to 1 hour. In experiments where pharmacological inhibitors were employed, ECs were incubated with antagonists in parallel with ARL 67156 for 30 minutes. To inhibit TNFR1, ECs were incubated with the peptide antagonist of the receptor WP9QY (10 μM; Anaspec). […] Cx hemichannels were inhibited with lanthanum (La^3+; 100 μM; Sigma) and Panx1 channels were blocked with carbenoxolone (CBX; 50 μM; Sigma) and the inhibitory peptide ^10panx1 (200 μM; Genscript). […] The role of caspase activation was assessed by inhibition with the pan-caspase blocker Q-VD-OPh (100 μM; Sigma). Following stimulation with TNFα or vehicle, 150 μL of the cell supernatant was collected and immediately placed into pre-chilled 1.5 mL Eppendorf tubes on ice. All samples were centrifuged at 10,000×g for 5 minutes and 50 μL of each sample was transferred to a white, opaque 96-well plate. Using a FluoStar Omega luminometer, 50 μL of luciferin:luciferase reagent (ATP bioluminescence assay kit HSII; Roche) was injected into each well and luminescence was recorded following a 5s orbital mix. ATP concentration in each sample was calculated from a standard curve for all experiments. Data are presented as a % change in ATP release from baseline (i.e. unstimulated cells) and expressed as mean±SEM (n=5 independent experiments with triplicate measurements).

A further assay has as its system HSaVEC. Description: In vitro ATP release assay (luciferin:luciferase), HSaVEC. In kind it is cell-based, human. Conditions: for inhibition of TNFα-mediated ATP release: CBX, ^10panx1; for effect of inhibitor on TNFα-induced ATP release: antagonist 30 min, WP9QY 10 μM, BFA 5 μg/mL, RuR 20 μM, PP2/PP3 10 μM. Here is the method: as §1
Assay [1] relates to THP-1 monocyte adhesion to HUVEC. The assay can be described thus: Static adhesion assay, THP-1 monocytes on HUVEC. It is filed as cell-based, human. Conditions: HUVEC treated with inhibitor prior to TNFα stimulation. Here is the method: HUVECs were seeded on gelatin-coated glass coverslips in 6-well plates and grown to confluence. On the day of the experiment, cells were washed 2× with 1× PBS and incubated for 30 minutes in basal EGM supplemented with 1% BSA in the presence or absence of pharmacological inhibitors. During this incubation period, human THP-1 monocytes were loaded with Calcein-AM (Invitrogen; 5 μg/mL) for 30 minutes at 37° C. Cells were then pelleted by brief centrifugation and excess calcein was removed by washing THP-1 cells 3 times in 1× PBS. Next, HUVECs were stimulated with TNFα (10 ng/mL) for 30 minutes. Following EC activation, calcein-loaded THP-1 monocytes were added to EC monolayers and incubated for 20 minutes at 37° C. to allow THP-1 to contact ECs. Monolayers were then washed 3× with 1× PBS and fixed in ice cold 4% PFA. Following fixation, coverslips were removed from the 6-well plates and mounted on glass microscope slides with Prolong Gold anti-fade mountant with DAPI (Life Technologies). Fluorescent micrographs were obtained at 10×magnification and the number of adherent THP-1 monocytes/ECs was quantified in 5 randomized regions/slide. Data are expressed as mean±SEM (n=3 independent experiments).

The subject of assay [2] is isolated murine mesenteric venules. Description: Ex vivo vascular perfusion ATP release assay, mesenteric venules. It is filed as cell-based, mouse. The settings on record: WP9QY 10 μM, PP2 10 μM. Here is the method:
For isolated blood vessel experiments, 2nd order venules or arterioles were dissected from the mouse mesentery circulation and cannulated on glass micropipettes to access the vessel lumen. […] Vessels were then perfused with MOPS PSS containing 300 μM ARL 67156 +/− pharmacological inhibitors and incubated for an additional 20 minutes prior to perfusion with MOPS PSS containing recombinant murine TNFα (R&D Systems). Aliquots of the lumenal perfusate were collected every 5 minutes for a 25-minute period and the ATP concentration was quantified by bioluminescence as described above. Data are expressed as mean±SEM (n=4 independent experiments).

The next assay has as its system Src Family Kinases (SFK). Description: Western blot of SFK activation (pY416SFK) in venous ECs. In kind it is cell-based, human. The settings on record: HUVEC and HSaVEC; PP2/PP3 10 μM. Here is the method: (§2) Following stimulation with TNFα (in vitro: 10 ng/mL; ex vivo: 50 ng/mL), confluent endothelial cell monolayers or isolated mesenteric venules were homogenized in ice cold Triton extraction buffer (50 mM Tris-HCL, 150 mM NaCl , 5 mM EDTA, 1% deoxycholate, 1% NP-40 and 1% Triton-X100 in phosphate buffered saline and pH adjusted to 7.4) containing protease and phosphatase inhibitors. Cell/Tissue lysates were incubated with rotation at 4° C. for 20 minutes to solubilize proteins, followed by centrifugation for 5 minutes at 13,000× g to pellet cell debris. Protein concentration was quantified using the BCA method. 15-20 μg of total protein was subjected to SDS gel electrophoresis using 4-12% Bis-Tris gels (Invitrogen) and transferred to nitrocellulose membranes for immunoblotting. Membranes were blocked for 1 hr at room temperature with LiCOR blocking solution, then incubated overnight at 4° C. with primary antibodies against pY416SFKs, (BD Biosciences; 1:1000) pY198Panx1 (Alpha Diagnostic Intl (ADI); 1:1000) and GAPDH (Sigma; 1:10,000) or an antibody against the intracellular loop of Panx1 (Panx1-IL) (ADI; 1:1000) (normalization controls). Membranes were then washed and incubated with LiCOR secondary antibodies (1:10,000) and visualized and quantitated using LiCOR Odyssey. To inhibit SFK activity, EC monolayers were incubated with the SFK inhibitor PP2 (Tocris; 10 μM). […] To show specificity for the phosphorylated form of SFKs and Panx1, cell lysates were incubated with alkaline phosphatase for 1 hour at 37° C. Western blot images have been cropped for presentation. Uncropped Western blots can be found in FIGS. 12-13. Data are expressed as mean±SEM (n=3 independent experiments).
(In general: In western blotting, separated proteins are transferred to a membrane and probed.)

The next assay deals with Panx1. Description: Western blot of Panx1 phosphorylation at Y198 in venous ECs. It is filed as cell-based, human. The procedure: as §2
In the next assay the test system is C57B1/6J mice. Description: Intravital microscopy of cremaster muscle for leukocyte adhesion and emigration. Conditions: control C57B1/6J mice, tamoxifen 10 consecutive days. It is filed as in vivo, mouse. The procedure: Mice were prepared for intravital microscopy of the cremaster muscle as described previously^25. Briefly, mice were anesthetized with ketamine hydrochloride (150 mg/kg, IP) and xylazine (7.5 mg/kg, IP). The cremaster was isolated, laid over a viewing pedestal, superfused with bicarbonate-buffered saline. After 30 min equilibration, a venule with a wall shear rate (WSR) of ≥500/s, diameter between 20 μm and 40 μm, and the least number of adherent and emigrated leukocytes was chosen for further study. A 1 min baseline recording was made, after which superfusion was stopped, and 50 μl TNFα (1.7 ng/ml in 0.1% BSA) or vehicle control was added under a saran wrap cover every 30 min. 1 min recordings were made just prior to each addition, for 3 hrs. The TNFα was initially reconstituted in PBS at 3.4 ng/ml and 150 μl aliquots were frozen. An aliquot was mixed 1:1 with BBS containing 0.2% BSA at the time of the experiment. Leukocyte adhesion and emigration were determined by off-line analysis. Leukocytes were considered adherent if they stopped for at least 30 s (expressed as #/mm^2 vessel wall), and emigrated leukocytes were leukocytes identified in the interstitium (expressed as #cells/mm^2 tissue). Data are expressed as mean±SEM (n=6-7 independent animals/group).

For another assay, the target named is pannexin1 channel (Homo sapiens, UniProt Q96RD7). The settings on record: cited from earlier work.
Sequence of pannexin1 channel (Q96RD7 whole entry): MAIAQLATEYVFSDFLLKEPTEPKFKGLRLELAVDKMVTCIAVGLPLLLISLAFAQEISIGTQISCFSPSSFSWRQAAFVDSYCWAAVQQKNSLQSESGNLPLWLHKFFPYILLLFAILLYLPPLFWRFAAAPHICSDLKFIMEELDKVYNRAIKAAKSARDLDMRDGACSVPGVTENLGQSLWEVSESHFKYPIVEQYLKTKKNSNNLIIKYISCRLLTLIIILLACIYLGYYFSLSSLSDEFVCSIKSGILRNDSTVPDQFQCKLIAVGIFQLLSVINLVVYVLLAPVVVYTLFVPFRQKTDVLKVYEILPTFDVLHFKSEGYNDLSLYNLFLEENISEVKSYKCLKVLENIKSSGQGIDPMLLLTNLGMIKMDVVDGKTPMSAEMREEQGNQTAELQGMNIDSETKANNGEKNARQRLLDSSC
Another assay concerns the target T1, Panx1 channels in HUVEC (Homo sapiens, UniProt Q96RD7).
T1 construct: Primary human umbilical vein endothelial cells (HUVEC) were purchased from Cell Applications; PromoCell 200K-05; C-12231; host or cells: HUVEC, HSaVEC (primary human venous endothelial cells)
Description: YO-PRO-1 dye uptake assay. In kind it is cell-based. Conditions: ^10panx1 200 μM, TNFα 10 ng/mL 30 minutes. The procedure: HUVECs were cultured on poly-L-lysine coated coverslips and grown to confluence in EGM. Cells were washed three times with 1× PBS and incubated in fresh EGM for 30 minutes prior to stimulation. To stimulate YO-PRO-1 dye uptake, YO-PRO-1 (1 μM) was added to the media and EC monolayers were treated with TNFα at a range of concentrations (0.1 ng/mL-100 ng/mL) for 30 minutes. At the end of the stimulation, cells were washed 3× with 1× PBS and immediately fixed in 4% PFA. Coverslips were then mounted on microscope slides with DAPI ProlongGold mounting agent and visualized on an Olympus IX81 laser scanning confocal microscope. Dye uptake was quantified as the intensity of YO-PRO-1 fluorescence over time using ImageJ software. For time course analysis, YO-PRO-1 was added to the culture media at various time points after TNFα stimulation and incubated to the 30-minute time point. Data are expressed as mean±SEM (n=3 independent experiments).

T1 sequence (Q96RD7 whole entry): as above

Consider `CC1(C)[C@@H](OC(=O)CCC(=O)O)CC[C@]2(C)[C@H]3C(=O)C=C4[C@@H]5C[C@@](C)(C(=O)O)CC[C@]5(C)CC[C@@]4(C)[C@]3(C)CC[C@@H]12` [CBX, carbenoxolone], for which, in the assay with HUVEC (HUVEC), the “reduction of TNFα-mediated ATP release” value is listed as 86.4%. For the same compound, the “inhibition of TNFα-mediated ATP release” value with HSaVEC (HSaVEC) is 69.7%. Besides, in [1], the “effect on TNFα-induced THP-1 monocyte adhesion” value was “significantly reduced”.

For the compound `CC(C)(C)n1nc(-c2ccc(Cl)cc2)c2c(N)ncnc21` [PP2], the “effect of inhibitor on TNFα-induced ATP release” value (“effect of inhibitor” below) is reported as “significantly blunted” in the assay on HUVEC (HUVEC), “significantly blunted” in the assay with HSaVEC (HSaVEC) and “blunting ATP release” in [2]. Moreover, the “effect on TNFα-induced Y416 phosphorylation of SFK” value in the assay on Src Family Kinases (SFK) was “reduced Y416 phosphorylation to baseline levels”. For the same compound, the “effect on Panx1 Y198 phosphorylation induced by c-Src overexpression” value with Panx1 (HUVEC) was “blocked”. The “effect on TNFα-induced Panx1 phosphorylation at Y198” value in the assay on Panx1 (HUVEC and HSaVECs, pretreatment with PP2) is on record as “blocked”.

Turning to `Nc1ncnc2c1cnn2-c1ccccc1` [PP3], the “effect of inhibitor” value in the assay on HUVEC (HUVEC) and in the assay with HSaVEC (HSaVEC) was “no significant effect” throughout. For the same compound, in the assay on Src Family Kinases (SFK), the “effect on TNFα-induced Y416 phosphorylation of SFK” value was “no effect”.

Consider `CC(C)[C@H](NC(=O)c1ccc2ccccc2n1)C(=O)N[C@@H](CC(=O)O)C(=O)COc1c(F)cccc1F` [Q-VD-OPh], for which the “effect of inhibitor” value in the assay on HUVEC (HUVEC) was “lack of inhibition”.

On to `[La]` [lanthanum], for which the “effect of inhibitor” value in the assay on HUVEC (HUVEC) is “failed to reduce ATP release”.

Take `N.N.N.N.N.N.N.N.N.N.N.N.N.N.[Cl-].[Cl-].[Cl-].[Cl-].[Cl-].[Cl-].[O-2].[O-2].[Ru+3].[Ru+3].[Ru+4]` [ruthenium red]: the “effect of inhibitor” value in the assay with HUVEC (HUVEC) and in the assay with HSaVEC (HSaVEC) was “ruled out the involvement” in each case.

Consider `CC/C(=C(\c1ccccc1)c1ccc(OCCN(C)C)cc1)c1ccccc1` [tamoxifen], for which, in the assay on C57B1/6J mice, the “effect on TNFα-induced leukocyte adhesion” value is “no effect” and the “effect on TNFα-induced leukocyte emigration” value is given as “no effect”.

As for Apyrase, in assay [1], the “effect on TNFα-induced THP-1 monocyte adhesion” value is recorded as “significantly reduced”.

“IL-1β: recombinant human pro-inflammatory cytokine”: the “ATP release on cytokine stimulation” value with HUVEC (HUVEC monolayers) and in the assay on HSaVEC (HSaVEC monolayers) was “failed to promote ATP release” in each case. Further, the “degree of ATP release on co-administration with TNFα vs TNFα alone” value in the assay with HUVEC (HUVEC, TNFα 10 ng/mL plus increasing IL-1β) was “did not significantly alter”; in the assay with HSaVEC (HSaVEC, TNFα 10 ng/mL plus increasing IL-1β) it was “did not significantly alter”.

For the compound “KYPIVEQYLKYGRKKQRRR (hybrid of human and HIV tat seq.) [IL2/PanX peptide]”, the “effect on TNFα-induced THP-1 monocyte adhesion” value in assay [1] is recorded as “ability to block leukocyte adhesion”. Further, the “inhibition of pannexin1 channel (previously shown / known)” value with pannexin1 channel is “potent and specific inhibitor”.

For WRQAAFVDSY [^10panx1], the “reduction of TNFα-mediated ATP release” value in the assay with HUVEC (HUVEC) came to 70.9%. In the assay on HSaVEC (HSaVEC), the “inhibition of TNFα-mediated ATP release” value is reported as 75.2%. In addition, the “effect on TNFα-induced YO-PRO-1 dye uptake” value with Panx1 channels in HUVEC is reported as “significantly attenuated”. Further, the “effect on TNFα-induced THP-1 monocyte adhesion” value in assay [1] is “significantly reduced”. In the assay with pannexin1 channel, the “inhibition of pannexin1 channel (previously shown / known)” value is given as “block pannexin-1 gap junctions”.

The record behind these values is patent US11331375B2, “Compositions and methods for regulating leukocyte adhesion” (University of Virginia Patent Foundation, priority 2015, dated 2022).
